Experiment: Randomized crossover pharmacokinetics study of two Sytrinol formulations, single oral dose, serum tangeretin and nobiletin by LC/MS/MS
Parameters: species or system healthy human subjects
Conditions: human, in vivo
Protocol: The following experiments were undertaken to determine whether citrus polymethoxylated flavones (PMFs) can be detected and quantitated in serum obtained from healthy adults after a single-dose administration of Sytrinol™ capsules (containing 1053 mg of total PMFs) and to compare oral bioavailabilities of two Sytrinol™ formulations in healthy human subjects. This study was conducted as a randomized crossover trial in ten healthy adults, five men and five women, age 23±3 years. […]
Peripheral blood was taken by venipuncture at time 0 (baseline) and times 0.25, 0.5, 1, 2, 4, 6, 8, 24 and 48 hours after ingestion of Sytrinol™ capsules. […] Tangeretin and nobiletin were detected in serum samples and quantitated by LC/MS/MS.
The study was designed to determine whether PMFs can be detected and quantitated in serum obtained from healthy adults after a single dose administration of Sytrinol™ capsules (containing 1053 mg of total PMFs) and to compare oral bioavailabilities of two Sytrinol™ formulations in healthy human subjects. […]
A method of serum extraction and LC/MS/MS analysis of PMF was developed. A Varian 1200 L LC/MS/MS system equipped with ESI and APCI sources was used to identify and quantify tangeretin and nobiletin. […]

- AUC0-48h of nobiletin compared with tangeretin: significantly higher
Structure (SMILES): COc1ccc(-c2cc(=O)c3c(OC)c(OC)c(OC)c(OC)c3o2)cc1OC [nobiletin]

Reference: patent US7887852B2, “Soft gel capsules containing polymethoxylated flavones and palm oil tocotrienols” (Soft Gel Technologies, Inc., priority 2005, dated 2011)
